Laboratory results from US20210290629A1 (priority 2016, published 2021).
Read-outs that look alike come from different tables or passages of the source.

Experiments:
[1] = system: GFP-expressing Mycobacterium tuberculosis H37Rv; format: cell-based
[2] = system: Mycobacterium tuberculosis (Mtb H37Rv) in human monocyte-derived macrophages (hMDM); format: cell-based; conditions: seven days; for intracellular growth of Mycobacterium tuberculosis in primary human macrophages (CFU): 300 nM
[3] = system: human monocyte-derived macrophages (hMDM); assay: Cell viability analysis by impedance measurements (xCELLigence); format: cell-based; conditions: FIG. 5 and 6, range of tested concentrations (30, 100 and 300 nM), 120 h
Protocol: 3) Cell Viability Analysis by Impedance Measurements
Real-time viability assays (5×10^4 human monocyte derived macrophages/well) were performed with the xCELLigence System (Acea Biosciences Inc.) (Otero-Gonzalez L et al., Environ Sci Technol. 2012; 46(18):10271-8). Impedance measurement was carried out using plates with incorporated sensor array (E-Plate) and the Real-Time Cell Analyzer (RTCA) SP instrument for 120 h. After equilibration of the cells in RPMI 1640 with 10% FCS and 4 mM L-glutamine for 3 h, cells incubated in the absence (medium) or the presence of the ACC2 inhibitor (30, 100 and 300 nM) and staurosporine (1 μg/ml). Data obtained was analyzed using the RTCA Software 2.0 (Acea Biosciences Inc.) see FIGS. 5 and 6.

M. tuberculosis AccD5 = M. tuberculosis AccD5 (Mycobacterium tuberculosis, UniProt P9WQH7); conditions: literature, Lin T-W. et al., PNAS 2006; cited from earlier work
M. tuberculosis AccD5, sequence (P9WQH7 whole entry): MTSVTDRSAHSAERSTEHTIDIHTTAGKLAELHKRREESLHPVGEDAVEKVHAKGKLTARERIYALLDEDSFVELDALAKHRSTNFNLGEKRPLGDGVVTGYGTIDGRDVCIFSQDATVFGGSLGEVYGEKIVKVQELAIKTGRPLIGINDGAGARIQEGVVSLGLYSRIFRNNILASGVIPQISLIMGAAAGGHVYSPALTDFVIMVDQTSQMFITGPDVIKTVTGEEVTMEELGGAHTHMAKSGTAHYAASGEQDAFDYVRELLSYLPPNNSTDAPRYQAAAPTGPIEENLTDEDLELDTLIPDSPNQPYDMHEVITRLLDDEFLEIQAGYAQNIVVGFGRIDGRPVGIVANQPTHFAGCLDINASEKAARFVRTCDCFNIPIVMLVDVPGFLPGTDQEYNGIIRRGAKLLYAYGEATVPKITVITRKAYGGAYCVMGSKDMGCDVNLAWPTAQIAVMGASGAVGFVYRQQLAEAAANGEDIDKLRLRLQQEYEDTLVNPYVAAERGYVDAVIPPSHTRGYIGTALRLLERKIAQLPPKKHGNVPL
M. tuberculosis AccD5, sequence (P9WPQ3 whole entry, further chain): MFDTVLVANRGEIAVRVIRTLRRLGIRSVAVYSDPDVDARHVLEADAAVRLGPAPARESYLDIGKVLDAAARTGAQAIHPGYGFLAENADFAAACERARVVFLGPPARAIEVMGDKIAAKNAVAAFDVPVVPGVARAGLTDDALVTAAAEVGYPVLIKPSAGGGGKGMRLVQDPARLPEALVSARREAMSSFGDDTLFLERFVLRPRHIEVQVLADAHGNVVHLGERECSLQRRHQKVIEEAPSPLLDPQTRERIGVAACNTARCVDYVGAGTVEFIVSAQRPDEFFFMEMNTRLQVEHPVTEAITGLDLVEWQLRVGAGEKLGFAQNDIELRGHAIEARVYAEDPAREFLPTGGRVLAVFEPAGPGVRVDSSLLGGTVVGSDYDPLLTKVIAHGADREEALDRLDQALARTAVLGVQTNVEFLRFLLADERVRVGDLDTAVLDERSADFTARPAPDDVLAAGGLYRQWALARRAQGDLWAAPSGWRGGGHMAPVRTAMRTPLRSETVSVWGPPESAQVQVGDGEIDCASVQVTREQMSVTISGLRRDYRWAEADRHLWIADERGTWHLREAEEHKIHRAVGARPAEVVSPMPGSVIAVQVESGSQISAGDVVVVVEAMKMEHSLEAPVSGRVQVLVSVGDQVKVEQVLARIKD

M, tuberculosis = conditions: literature, Singhal A. et al., Science Translational Medicine 2014; cited from earlier work
[4] = FIG. 8 and 9, indicated concentrations, day 7

In the case of `COc1ccccc1[C@H](Cn1c(=O)n(C(C)(C)C(N)=O)c(=O)c2c(C)c(-c3ncco3)sc21)OC1CCOCC1` [ND-646], the “growth of Mycobacterium tuberculosis (Mtb) in liquid culture (fluorescence signal intensity at 528 nm)” value [1, 4] is reported as “do not affect growth”.

With `CC(=O)NC(C)c1cnc(-c2cnc(Oc3ccc(OC(C)C)cc3)s2)s1` (stereo not drawn) [ab142090, N-(1-(2′-(4-isopropoxyphenoxy)-2,5′-bithiazol5-yl)ethyl)Acetamide] the “growth of Mycobacterium tuberculosis (Mtb) in liquid culture (fluorescence signal intensity at 528 nm)” value ([1]; FIG. 1, indicated concentrations and time points, two independent experiments) was “does not affect the growth”, the “intracellular growth of Mycobacterium tuberculosis in primary human macrophages (CFU)” value ([2]; FIG. 2, 100 nM, three donors) was “dose-dependently reduces intracellular growth” and the “intracellular growth of Mycobacterium tuberculosis in primary human macrophages (CFU), combination with antibiotics” value ([2]; FIG. 3, 100 nM or 300 nM in combination with rifampicin or isoniazid in suboptimal concentrations, three donors) was “reduces intracellular growth”. For the same compound, the “viability of primary human macrophages (cell index, impedance)” value [3] was “does not affect the viability”.

For `CC(Oc1ccc(Oc2ccc(Cl)cc2Cl)cc1)C(=O)O` (stereo not drawn) [Diclofop], the “inhibition of M. tuberculosis AccD5” value (M. tuberculosis AccD5) is given as “cannot be inhibited”.

In the case of `O=C(c1c2ccccc2cc2ccccc12)N1CCC(N2CCC[C@@H](C(=O)N3CCOCC3)C2)CC1` [CP640.186], the “growth of Mycobacterium tuberculosis (Mtb) in liquid culture (fluorescence signal intensity at 528 nm)” value [1, 4] is reported as “does not affect growth”, the “intracellular growth of Mycobacterium tuberculosis in primary human macrophages (CFU)” value ([2]; FIG. 4, 500 nM, one out of two experiments) is reported as “dose-dependently reduces intracellular growth” and the “viability of primary human macrophages (cell index, impedance)” value [3] is reported as “does not affect the viability”.

For `CC(Oc1ccc(Oc2ncc(C(F)(F)F)cc2Cl)cc1)C(=O)O` (stereo not drawn) [Haloxyfop], the “inhibition of M. tuberculosis AccD5” value (M. tuberculosis AccD5) is given as “cannot be inhibited”.

In the case of `CN(C)C(=N)N=C(N)N` [Metformin], the “intracellular growth of M. tuberculosis” value (M, tuberculosis) is given as “reducing the intracellular growth”.

With `COc1cc(C(=O)N2CCC3(CC2)CC(=O)c2cc(-c4cncc(C(=O)O)c4)ccc2O3)cc2c1c(C)cn2C1CC1` [MK-4074] the “growth of Mycobacterium tuberculosis (Mtb) in liquid culture (fluorescence signal intensity at 528 nm)” value [1, 4] was “do not affect growth”.
